Experimental data published in patent publication US20250042879A1, “HETEROCYCLIC SUBSTITUTED 1,3,4-THIADIAZOLE AND PYRIDAZINE COMPOUNDS AND METHODS OF USING THE SAME” (Rgenta Therapeutics, Inc., priority 2021, published 2025).
Counter-ions that a name gives are not always drawn.

The compounds below were run on HTT (assay: Mini-gene reporter assay-HTT (firefly luciferase, exon inclusion)). Conditions: HTT Minigene, 5 μM; read-out: % Efficacy at 5 μM.
Type: cell-based
In short: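 HEK293 cells transiently transfected with a pcDNA3.1 mini-gene carrying the alternatively skipped exon with flanking introns and exons fused to firefly luciferase were incubated with compound, in duplicate. Exon inclusion raises luciferase luminescence. EC50 came from Levenberg-Marquardt curve fitting.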

Row | Compound | Emax at 5 µM
1 | COc1cc(-c2ccc(-c3ccc(C4CN(C5CC(OC)C5)C4)nn3)c(O)c2)cc2cn(C)nc12 (centres unmarked) [Compound 160] | 25 to 75%
2 | COc1cc(-c2ccc(-c3ccc(C4CN(Cc5c(C)nn(C)c5C)C4)nn3)c(O)c2)cc2cn(C)nc12 [Compound 133] | < 25%
3 | COc1cc(-c2ccc(-c3ccc(C4CN(CC5CCCOC5)C4)nn3)c(O)c2)cc2cn(C)nc12 (centres unmarked) [Compound 147] | > 750%
4 | Cc1cn2cc(-c3ccc(-c4ccc(C5CN(Cc6cnn(CCF)c6)C5)nn4)c(O)c3)cc(F)c2n1 [Compound 102] | > 750%
5 | Cc1cn2cc(-c3ccc(-c4ccc(C5CN(C6CCc7cn[nH]c7C6)C5)nn4)c(O)c3)cc(F)c2n1 (centres unmarked) [Compound 128] | 25 to 75%
6 | COc1cc(-c2ccc(-c3ccc(C4CN(Cc5cc(C6CC6)[nH]n5)C4)nn3)c(O)c2)cc2cn(C)nc12 [Compound 161] | 25 to 75%
7 | Cc1cn2cc(-c3ccc(-c4ccc(C5CN(CC6CC6C)C5)nn4)c(O)c3)cc(F)c2n1 (centres unmarked) [Compound 105] | > 750%
8 | Cc1cn2cc(-c3ccc(-c4ccc(C5CN(Cc6cnn(C)n6)C5)nn4)c(O)c3)cc(F)c2n1 [Compound 117] | 25 to 75%
9 | COc1cc(-c2ccc(-c3ccc(C4CN(C(C)C5CCCCO5)C4)nn3)c(O)c2)cc2cn(C)nc12 (centres unmarked) [Compound 187] | 25 to 75%
10 | COc1cc(-c2ccc(-c3ccc(C4CN(C5CCCSC5)C4)nn3)c(O)c2)cc2cn(C)nc12 (centres unmarked) [Compound 142] | 25 to 75%
11 | COCC(C)CN1CC(c2ccc(-c3ccc(-c4cc(F)c5nc(C)cn5c4)cc3O)nn2)C1 (centres unmarked) [Compound 104] | 25 to 75%
12 | Cc1cn2cc(-c3ccc(-c4ccc(C5CN(Cc6cn(C)cn6)C5)nn4)c(O)c3)cc(F)c2n1 [Compound 100] | 25 to 75%
13 | COc1cc(-c2ccc(-c3ccc(C4CN(C5CCCOCC5)C4)nn3)c(O)c2)cc2cn(C)nc12 (centres unmarked) [Compound 155] | > 750%
14 | Cc1cn2cc(-c3ccc(-c4ccc(C5CN(Cc6ccn(C)c6)C5)nn4)c(O)c3)cc(F)c2n1 [Compound 94] | 25 to 75%
15 | Cc1cn2cc(-c3ccc(-c4ccc(C5CN(C6COCCOC6)C5)nn4)c(O)c3)cc(F)c2n1 [Compound 97] | 25 to 75%
16 | COc1cc(-c2ccc(-c3ccc(C4CN(C5CCOC(C)C5)C4)nn3)c(O)c2)cc2cn(C)nc12 (centres unmarked) [Compound 145] | 25 to 75%
17 | Cc1cn2cc(-c3ccc(-c4ccc(C5CN(C(C)Cn6cncn6)C5)nn4)c(O)c3)cc(F)c2n1 (centres unmarked) [Compound 120] | < 25%
18 | Cc1cn2cc(-c3ccc(-c4ccc(C5CN(Cc6cocn6)C5)nn4)c(O)c3)cc(F)c2n1 [Compound 101] | 25 to 75%
19 | COc1nn(C)cc1CN1CC(c2ccc(-c3ccc(-c4cc(F)c5nc(C)cn5c4)cc3O)nn2)C1 [Compound 126] | 25 to 75%
20 | COc1cc(-c2ccc(-c3ccc(C4CN(Cc5csnn5)C4)nn3)c(O)c2)cc2cn(C)nc12 [Compound 140] | < 25%
21 | CCOC1CC(N2CC(c3ccc(-c4ccc(-c5cc(OC)c6nn(C)cc6c5)cc4O)nn3)C2)C1 (centres unmarked) [Compound 163] | 25 to 75%
22 | Cc1cn2cc(-c3ccc(-c4ccc(C5CN(C6CCN(C)CC6)C5)nn4)c(O)c3)cc(F)c2n1 [Compound 75] | 25 to 75%
23 | COc1cc(-c2ccc(-c3ccc(C4CN(C5CC6(COC(C)C6)C5)C4)nn3)c(O)c2)cc2cn(C)nc12 (centres unmarked) [Compound 188] | 25 to 75%
24 | Cc1cn2cc(-c3ccc(-c4ccc(C5CN(C(C)C6CCCO6)C5)nn4)c(O)c3)cc(F)c2n1 (centres unmarked) [Compound 95] | > 750%
25 | COc1cc(-c2ccc(-c3ccc(C4CN(C5CCOC6(CCC6)C5)C4)nn3)c(O)c2)cc2cn(C)nc12 (centres unmarked) [Compound 172] | 25 to 75%
26 | COc1cc(-c2ccc(-c3ccc(C4CN(Cc5ccc(C)nn5)C4)nn3)c(O)c2)cc2cn(C)nc12 [Compound 180] | 25 to 75%
27 | COc1cc(-c2ccc(-c3ccc(C4CN(CCC5CCOCC5)C4)nn3)c(O)c2)cc2cn(C)nc12 [Compound 168] | > 750%
28 | Cc1cn2cc(-c3ccc(-c4ccc(C5CN(Cc6cn(C)nc6C)C5)nn4)c(O)c3)cc(F)c2n1 [Compound 81] | 25 to 75%
29 | COc1cc(-c2ccc(-c3ccc(C4CN(C(C)C5CCC5)C4)nn3)c(O)c2)cc2cn(C)nc12 (centres unmarked) [Compound 157] | > 750%

Same assay, conditions: Homo sapiens; HTT mini-gene firefly luciferase reporter transiently transfected into HEK293 cells

Row | Compound | EC50
30 | COc1cc(-c2ccc(-c3ccc(C4CN(C)C4)nn3)c(O)c2)cc2cn(C)nc12 [Compound 28, 5-(7-methoxy-2-methyl-2H-indazol-5-yl)-2-[6-(1-methylazetidin-3-yl)pyridazin-3-yl]phenol] | 50 to 500 nM
31 | Cn1cc2cc(-c3ccc(-c4ccc(C5CN(C6CCOCC6)C5)nn4)c(O)c3)ccc2n1 [Compound 22, 5-(2-methyl-2H-indazol-5-yl)-2-{6-[1-(oxan-4-yl)azetidin-3-yl]pyridazin-3-yl}phenol] | 500 to 1000 nM
32 | CC(C)N1CC(c2ccc(-c3ccc(-c4ccc5nn(C)cc5c4)cc3O)nn2)C1 [Compound 23, 2-(6-(1-isopropylazetidin-3-yl)pyridazin-3-yl)-5-(2-methyl-2H-indazol-5-yl)phenol] | ≥ 1000 nM
33 | CCN1CC(c2ccc(-c3ccc(-c4cc(OC)c5nn(C)cc5c4)cc3O)nn2)C1 [Compound 48, 2-[6-(1-ethylazetidin-3-yl)pyridazin-3-yl]-5-(7-methoxy-2-methyl-2H-indazol-5-yl)phenol] | 50 to 500 nM
34 | Cc1cc2cc(-c3ccc(-c4ccc(C5CNC5)nn4)c(O)c3)ccn2n1 [Compound 13, 2-[6-(azetidin-3-yl)pyridazin-3-yl]-5-{2-methylpyrazolo[1,5-a]pyridin-5-yl}phenol] | ≥ 1000 nM
35 | CCN1CC(c2ccc(-c3ccc(-c4cc(C)c5nc(C)cn5c4)cc3O)nn2)C1 [Compound 36, 5-{2,8-dimethylimidazo[1,2-a]pyridin-6-yl}-2-[6-(1-ethylazetidin-3-yl)pyridazin-3-yl]phenol] | ≥ 1000 nM
36 | Cc1cn2cc(-c3ccc(-c4ccc(C5CNC5)nn4)c(O)c3)cc(F)c2n1 [Compound 1, 2-(6-(azetidin-3-yl)pyridazin-3-yl)-5-(8-fluoro-2-methylimidazo[1,2-a]pyridin-6-yl)phenol] | 50 to 500 nM
37 | Cc1cn2nc(-c3ccc(-c4ccc(C5CN(C6CCOCC6)C5)nn4)c(O)c3)cc(C)c2n1 [Compound 64, 5-(2,8-dimethylimidazo[1,2-b]pyridazin-6-yl)-2-(6-(1-(tetrahydro-2H-pyran-4-yl)azetidin-3-yl)pyridazin-3-yl)phenol hydrochloride] | 500 to 1000 nM
38 | Cc1cc(-c2ccc(-c3ccc(C4CN(C)C4)nn3)c(O)c2)cc2cn(C)nc12 [Compound 27, 5-(2,7-dimethyl-2H-indazol-5-yl)-2-[6-(1-methylazetidin-3-yl)pyridazin-3-yl]phenol] | 50 to 500 nM
39 | Cc1cn2nc(-c3ccc(-c4ccc(C5CNC5)nn4)c(O)c3)cc(C)c2n1 [Compound 3, 2-[6-(azetidin-3-yl)pyridazin-3-yl]-5-{2,8-dimethylimidazo[1,2-b]pyridazin-6-yl}phenol] | 50 to 500 nM
40 | Cc1cc2cc(-c3ccc(-c4ccc(C5CN(C)C5)nn4)c(O)c3)ccn2n1 [Compound 21, 2-[6-(1-methylazetidin-3-yl)pyridazin-3-yl]-5-{2-methylpyrazolo[1,5-a]pyridin-5-yl}phenol] | ≥ 1000 nM
41 | Cn1cc2cc(-c3ccc(-c4ccc(C5CNC5)nn4)c(O)c3)ccc2n1 [Compound 16, 2-[6-(azetidin-3-yl)pyridazin-3-yl]-5-(2-methyl-2H-indazol-5-yl)phenol] | 50 to 500 nM
42 | Cc1cc2cc(-c3ccc(-c4ccc(C5CN(C)C5)nn4)c(O)c3)cc(C)n2n1 [Compound 40, 5-{2,7-dimethylpyrazolo[1,5-a]pyridin-5-yl}-2-[6-(1-methylazetidin-3-yl)pyridazin-3-yl]phenol] | 500 to 1000 nM
43 | CCOc1cc(-c2ccc(-c3ccc(C4CN(C5CCOCC5)C4)nn3)c(O)c2)cc2cn(C)nc12 [Compound 54, 5-(7-ethoxy-2-methyl-2H-indazol-5-yl)-2-{6-[1-(oxan-4-yl)azetidin-3-yl]pyridazin-3-yl}phenol] | ≥ 1000 nM
44 | Cc1cn2cc(-c3ccc(-c4ccc(C5CNC5)nn4)c(O)c3)cc(C)c2n1 [Compound 4, 2-(6-(azetidin-3-yl)pyridazin-3-yl)-5-(2,8-dimethylimidazo[1,2-a]pyridin-6-yl)phenol hydrochloride] | ≥ 1000 nM

Each compound was assayed on HTT (exclusion transcript) (assay: RT-qPCR assay to quantify changes in HTT splice isoforms: exclusion transcript). Conditions: Homo sapiens, SK-N-SH cells, approximately 96 hours, GAPDH reference.
Type: cell-based
Protocol: (§1) SK—N—SH cells were seeded at 8.5e3 per well in a 96 well plate, in […] (×4 plates, quadruplicate) and treated with the indicated compounds at different concentrations with a final DMSO concentration of 0.5%. Vehicle controls were set up by diluting DMSO 1:200. Cells were returned to a humidified incubator at 37° C., 5% CO2 and treated for approximately 96 hours.
(§2) RNA was isolated from each well using QIAGEN RNeasy mini columns (cat #74004) as per the manufacturer's instructions. Each condition was done in quadruplicate as mentioned above to allow for adequate starting template for downstream analyses. These quadruplicates were pooled (by condition) into single replicates at the cell lysis step. Reverse-transcription was done using the Applied Biosystems High-Capacity cDNA Reverse Transcription Kit (cat #4368814), per the manufacturer's instructions, using approximately half of the harvested RNA. The cDNA was diluted 1:10 in nuclease-free water, and qPCR was done using Applied Biosystems PowerUp SYBR Green Master Mix (cat #A25742) per the manufacturer's instructions. Cycling conditions are primers are detailed below. Each sample was run in technical duplicates.
(§3) Data were analyzed using the 2-DDCT method. GAPDH was used as the reference gene, and vehicle (i.e. DMSO only) treated cells were used as the reference/untreated cell populations. Relative expression of the HTT transcripts was plotted using Graphpad Prism.

Row | Compound | EC50
45 | COc1cc(-c2ccc(-c3ccc(C4CN(C)C4)nn3)c(O)c2)cc2cn(C)nc12 [Compound 28, 5-(7-methoxy-2-methyl-2H-indazol-5-yl)-2-[6-(1-methylazetidin-3-yl)pyridazin-3-yl]phenol] | < 50 nM
46 | Cn1cc2cc(-c3ccc(-c4ccc(C5CN(C6CCOCC6)C5)nn4)c(O)c3)ccc2n1 [Compound 22, 5-(2-methyl-2H-indazol-5-yl)-2-{6-[1-(oxan-4-yl)azetidin-3-yl]pyridazin-3-yl}phenol] | < 50 nM
47 | CC(C)N1CC(c2ccc(-c3ccc(-c4ccc5nn(C)cc5c4)cc3O)nn2)C1 [Compound 23, 2-(6-(1-isopropylazetidin-3-yl)pyridazin-3-yl)-5-(2-methyl-2H-indazol-5-yl)phenol] | < 50 nM
48 | CCN1CC(c2ccc(-c3ccc(-c4cc(C)c5nc(C)cn5c4)cc3O)nn2)C1 [Compound 36, 5-{2,8-dimethylimidazo[1,2-a]pyridin-6-yl}-2-[6-(1-ethylazetidin-3-yl)pyridazin-3-yl]phenol] | 50 to 500 nM

The compounds below were run on HTT (inclusion transcript) (assay: RT-qPCR assay to quantify changes in HTT splice isoforms: inclusion transcript). Conditions: Homo sapiens, SK-N-SH cells, approximately 96 hours, GAPDH reference.
Type: cell-based
Protocol: as §1, §2, §3

Row | Compound | EC50
49 | COc1cc(-c2ccc(-c3ccc(C4CN(C)C4)nn3)c(O)c2)cc2cn(C)nc12 [Compound 28, 5-(7-methoxy-2-methyl-2H-indazol-5-yl)-2-[6-(1-methylazetidin-3-yl)pyridazin-3-yl]phenol] | 500 to 1000 nM
50 | CC(C)N1CC(c2ccc(-c3ccc(-c4ccc5nn(C)cc5c4)cc3O)nn2)C1 [Compound 23, 2-(6-(1-isopropylazetidin-3-yl)pyridazin-3-yl)-5-(2-methyl-2H-indazol-5-yl)phenol] | > 1000 nM
